Reference: patent publication US20190359653A1, “SELECTIVE PEPTIDE INHIBITORS OF FRIZZLED” (Genentech, Inc., priority 2016, published 2019)
“Also recorded” adds a separate entry of the source.

Columns and labels:
[1] = tested on: mouse intestinal organoids; assay: organoid budding / stem cell potential; type: cell-based; conditions: 48 h; dFz7-21 1-200 μM, Fz7-21S 200 μM; FIG. 18
Experimental: Mouse organoids were established from isolated crypts collected from the entire length of the small intestine and maintained as previously described (Sato et al. (2009) Nature 459, 262-265 (2009). All mouse derived tissue was performed according to the animal use guidelines of Genentech, a Member of the Roche Group, and the Institutional Animal Care and Use Committee, conforming to California State legal and ethical practices. Mouse sex was not selected for. Organoids were passaged at least twice per week and grown using IntestiCult Organoid growth media (cat. no. 06005; StemCell Technologies). […]
The organoid culture system faithfully recapitulates the intestinal epithelium including the presence of crypt-villus morphology. […] Therefore, stem cell function of the organoid population (a Wnt-dependent process) was quantitatively assessed by scoring the number of formed buds per organoid (Grabinger et al. (2014) “Ex vivo culture of intestinal crypt organoids as a model system for assessing cell death induction in intestinal epithelial cells and enteropathy.” Cell Death & Disease 5, e1228). […] Morphologies of representative mouse intestinal organoids after 48 h treatment are shown in FIGS. 17A-G. Next, organoid stem cell (SC) potential after peptide treatment was quantified. […]

[2] = target: T1, Wnt5a binding to FZD4 CRD (Homo sapiens, UniProt Q9ULV1); assay: ELISA of biotinylated Wnt5a binding to FZD CRD-Fc; conditions: peptide 0-10 μM
T1 construct: hFZD4 CRD-Fc (cat no. 5847-FZ); purchased R&D systems 5847-FZ
T1 sequence (Q9ULV1 40-161 limits assumed): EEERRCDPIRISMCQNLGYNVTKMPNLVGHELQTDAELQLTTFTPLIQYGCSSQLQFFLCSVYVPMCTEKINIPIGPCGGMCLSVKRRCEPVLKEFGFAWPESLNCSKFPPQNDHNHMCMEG
Experimental: 384-well Maxisorp plates (cat. no. 464718; Thermo Scientific) were incubated with 30 μL of Neutravidin (cat. no. 31000, Thermo Scientific; 2 μg/mL in PBS) overnight at 4° C. Plates were then washed with PBST and blocked with PBS/1% BSA for 1 hour at RT and then washed with PBST prior to further processing. The binding assay was conducted in 96 well plates (cat no. 83007-374; VWR) which were blocked with PBS/1% BSA overnight at 4° C. hFZD4 CRD-Fc or hFZD7 CRD-Fc (63 ng/mL) were incubated with either Bio-Wnt3a (25 ng/mL) or Bio-Wnt5a (50 ng/mL) in the presence of 4-fold serial dilutions of the indicated peptide in PBS overnight at 4° C. All assays included hFZD9 CRD-mIgG2A protein as a negative control. hFZD7 CRD-His was suspended in 150 mM NaCl, 50 mM Tris-HCl at pH 7.5 and when used in assays an equal volume of the same buffer control was used. The binding assay mixtures were transferred to the Neutravidin coated plates and incubated for ˜1 h at RT. The wells were then washed with PBST, incubated with anti-hIgG1-HRP (1:10,000 suspended in PBS supplemented with 1% BSA; cat. no. A18817, Invitrogen), and washed again with PBST. The signal was developed with the addition of TMB reagent (following the manufacturer's recommendation; KPL; 50-76-00) for 15 min prior to the addition of an equal volume of 1 M phosphoric acid for 10 min Absorbance was measured at 450 nm using a Tekan M1000 plate reader. Values were collected and plotted using Prism Graphpad software. All assay conditions using peptides were at 1% DMSO final concentration. […]
Briefly, the assays were performed using (a) FZD1 CRD-Fc, (b) FZD2 CRD-Fc, (c) FZD4 CRD-Fc, or (d) FZD7 CRD-Fc as the capture reagent and biotinylated-Wnt5a as the detection reagent. […] Streptavidin-HRP was used to detect biotinylated Wnt5a, and HRP activity was measured as a function of chemiluminescence detection at 428 nm. […]

Sequence	budding events / organoid stem cell potential [1]	effect on Wnt5a binding to FZD4 CRD [2]
LPSDDLEFWCHVMY [dFz7-21]	dramatically reduced	did not show any effect; also recorded: no such effect
LPSDDLEFWSHVMY [Fz7-21S, negative control]	did not show any major effects	showed no effect
